The results in this text go back to paper PMC9841593 (ACS Medicinal Chemistry Letters, 2022).

This test has as its target influenza PAN endonuclease (Influenza A virus, UniProt C3W5S0, DEL52-64/INS51G). It is filed as biochemical, influenza A/California/04/2009(H1N1).
Turning to `NC(=O)c1[nH]c(Br)cc(=O)c1O` [Compound 3], the “inhibition of PAN (in words)” value is given as “little difference in activity when compared with compounds 1 or 2”.

In the case of `O=c1cc(Br)[nH]c(-c2nnn[nH]2)c1O` [Compound 4], the “inhibition of PAN (in words)” value is reported as “activity comparable to that of the parent structure”.

As to `CONC(=O)c1[nH]c(Br)cc(=O)c1O` [Compound 5], the “inhibition of PAN (in words)” value was “moderate inhibition”.

Turning to `O=c1[nH]c(-c2[nH]c(Br)cc(=O)c2O)no1` [Compound 7], the “inhibition of PAN (in words)” value was “most potent IC50 value of the evaluated compounds”.

With `Cc1nc(-c2[nH]c(Br)cc(=O)c2O)no1` [Compound 8], the “inhibition of PAN (in words)” value is “good inhibition”.

For `N#Cc1[nH]c(Br)cc(=O)c1O` [Compound 9], the “inhibition of PAN (in words)” value is “relatively poor inhibition”.

With `O=c1cc(Br)[nH]c(C2=NCCN2)c1O` [Compound 10], the “inhibition of PAN (in words)” value is recorded as “markedly poorer inhibition than the parent MBI”.

As to `O=c1cc(Br)[nH]c(C2=NCCO2)c1O` [Compound 11], the “inhibition of PAN (in words)” value is “markedly poorer inhibition than the parent MBI”.
